Patent publication US20110098322A1, “PREPARATION OF NOVEL 1,3-S[…] AS INHIBITORS OF SOLUBLE EPOXIDE HYDROLASE” (priority 2007, published 2011)

target: T1, Recombinant human sEH (Homo sapiens, UniProt P34913); experiment: Inhibition of human soluble epoxide hydrolase (IC50 assay); format: biochemical
T1 construct: made in house
T1 sequence (P34913 1-555): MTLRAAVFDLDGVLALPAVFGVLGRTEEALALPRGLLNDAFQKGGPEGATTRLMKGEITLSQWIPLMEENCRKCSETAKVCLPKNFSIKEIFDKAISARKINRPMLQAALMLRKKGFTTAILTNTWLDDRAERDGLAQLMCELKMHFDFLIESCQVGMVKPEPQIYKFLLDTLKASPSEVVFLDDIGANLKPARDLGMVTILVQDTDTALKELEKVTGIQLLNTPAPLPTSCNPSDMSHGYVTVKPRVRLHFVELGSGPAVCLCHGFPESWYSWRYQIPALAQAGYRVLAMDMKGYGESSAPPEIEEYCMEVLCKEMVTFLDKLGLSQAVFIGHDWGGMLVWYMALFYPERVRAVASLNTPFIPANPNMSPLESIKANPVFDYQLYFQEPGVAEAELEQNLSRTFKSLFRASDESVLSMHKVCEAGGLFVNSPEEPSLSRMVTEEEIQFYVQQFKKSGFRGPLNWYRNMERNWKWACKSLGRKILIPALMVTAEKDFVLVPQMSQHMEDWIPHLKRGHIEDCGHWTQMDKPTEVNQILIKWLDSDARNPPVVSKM
Source text: This example provides assays and illustrates the inhibition of human soluble epoxide hydrolases by compounds of the invention.
Recombinant human sEH was produced in a baculovirus expression system and purified by affinity chromatography. The preparations were at least 97% pure as judged by SDS-PAGE and scanning densitometry. No detectable esterase or glutathione transferase activity, which can interfere with this sEH assay, was observed. Protein concentration was quantified by using the Pierce BCA assay using Fraction V bovine serum albumin as the calibrating standard.
IC50 values were determined in one of three methods. One method uses racemic 4-nitrophenyl-trans-2,3-epoxy-3-phenylpropyl carbonate as substrate. Enzyme (0.24 μM human sEH) was incubated with inhibitors for 5 min in sodium phosphate buffer, 0.1 M pH 7.4, at 30° C. before substrate introduction([S]=40 μM). Activity was assessed by measuring the appearance of the 4-nitrophenolate anion at 405 nm at 30° C. during 1 min (Spectramax 200; Molecular Devices). Assays were performed in triplicate. 1050 is a concentration of inhibitor, which reduces enzyme activity by 50%, and was determined by regression of at least five datum points with a minimum of two points in the linear region of the curve on either side of the IC50. The curve was generated from at least three separate runs, each in triplicate.
Other IC50 values were determined using the procedure described in Analytical
Biochemistry 343 66-75 (2005) using cyano(6-methoxy-naphthalen-2-yl)methyl trans-[(3-phenyloxiran-2-yl)methyl]carbonate as a substrate. Enzymes (0.96 nM for human sEH) were incubated with inhibitors ([I]=0.5-10,000 nM) for 5 min in BisTris-HCl buffer (25 mM, pH 7.0, containing 0.1 mg/ml of BSA) at 30° C. prior to substrate introduction ([S]=5 µM). Enzyme activity was measured by monitoring the appearance of 6-methoxy-2-naphthaldehyde. Assays were performed in triplicate. By definition, IC50 values are concentrations of inhibitor that reduce enzyme activity by 50%. IC50 values were determined by regression of at least five datum points, with a minimum of two datum points in the linear region of the curve on either side of the IC50 values. The curve was generated from at least three separate runs, each in triplicate.
Other inhibition potencies were determined using a fluorescent based high-throughput assay. Inhibitors in solution at 10 mM in DMSO were serially diluted by 10-fold increment in Bis/Tris HCl buffer (25 mM pH 7.0) containing 0.1 mg/mL of BSA (Buffer A). In black 96-well plates, 20 µL of the inhibitor dilution or buffer were delivered in every well, and then 130 μL of Human sEH at ˜0.4 μg/mL in solution in Buffer A were added to each well. The plate was then mixed and incubated at room temperature for 5 minutes. Fifty microliters of substrate ((3-Phenyl-oxiranyl)-acetic acid cyano-(6-methoxy-naphthalen-2-yl)-methyl ester; PHOME) at 200 μM in solution in 96:4 Buffer A:DMSO was then added to each well to give [S]final=50 μM and [E]final=˜4 nM. The plate was then mixed and incubated in the dark at room temperature (˜25° C.) for 90 min. Activity was measured by determining the relative quantity of 6-methoxy-2-naphthaldehyde formed with an excitation wavelength of 316 nm and an emission wavelength of 460 nm measured with a SpectraMax M-2 fluorometer (molecular Devices, Sunnyvale, Calif.).
Assays were conducted with the compounds indicated in the table below, as described above.

Row | SMILES | IC50
1 | C=C(C)c1cccc(C(C)(C)NC(=O)NC2CCCCC2)c1 [Compound 1520] | 11.4 nM
2 | CC(C)c1cccc(C(C)(C)NC(=O)NC2CCCCC2)c1 [Compound 1713, 1-cyclohexyl-3-(2-(3-isopropylphenyl)propan-2-yl)urea] | 7.5 nM
3 | C=C(C)c1cccc(C(C)(C)NC(=O)NCCCCCCCCCCCC)c1 [Compound 1714] | 33 nM
4 | CCCCCCCCCCCCNC(=O)NC(C)(C)c1cccc(C(C)C)c1 [Compound 1715] | 10.9 nM
5 | C=C(C)c1cccc(C(C)(C)NC(=O)Nc2cccc(C(=O)OCC)c2)c1 [Compound 1716] | 41.3 nM
6 | CCOC(=O)c1cccc(NC(=O)NC(C)(C)c2cccc(C(C)C)c2)c1 [Compound 1717] | 158 nM
7 | C=C(C)c1cccc(C(C)(C)NC(=O)Nc2cccc(C(=O)O)c2)c1 [Compound 1718] | 7920 nM
8 | CC(C)c1cccc(C(C)(C)NC(=O)Nc2cccc(C(=O)O)c2)c1 [Compound 1719] | 1610 nM
9 | CC(C)c1cccc(C(C)(C)NC(=O)NCCCCc2ccccc2)c1 [Compound 1805] | 11.5 nM
10 | CC(C)c1cccc(C(C)(C)NC(=O)NCC2CCN(C(=O)OC(C)(C)C)CC2)c1 [Compound 1806] | 5.6 nM
11 | CC(C)c1cccc(C(C)(C)NC(=O)NCCc2ccc(C(=O)O)cc2)c1 [Compound 1807] | 2890 nM
12 | CC(C)c1cccc(C(C)(C)NC(=O)NCCCCCCCCCCCC(=O)O)c1 [Compound 1808] | 52.5 nM
13 | CC(C)c1cccc(C(C)(C)NC(=O)NC2CCC(C(=O)O)CC2)c1 (stereo not drawn) [Compound 1852] | 555 nM
14 | CC(C)c1cccc(C(C)(C)NC(=O)NC2CCN(C(=O)OC(C)(C)C)CC2)c1 [Compound 1868] | 21.6 nM
15 | C=C(C)c1cccc(C(C)(C)NC(=O)N[C@H]2CC[C@H](O)CC2)c1 [Compound 1887, trans-1-(4-Hydroxy-cyclohexyl)-3-[1-(3-isopropenyl)-1-methyl-ethyl]-urea] | 76.7 nM
16 | CC(C)c1cccc(C(C)(C)NC(=O)NC2CCC(O)CC2)c1 (stereo not drawn) [Compound 1892] | 393 nM
17 | CC(C)c1cccc(C(C)(C)NC(=O)N[C@H]2CC[C@H](Oc3ccc(C#N)cc3)CC2)c1 [Compound 1908, trans-1-[4-(4-Cyano-phenoxy)-cyclohexyl]-3-[1-(3-isopropyl-phenyl)-1-methyl-ethyl]-urea] | 9.8 nM
18 | CC(C)c1cccc(C(C)(C)NC(=O)NCc2ccc(Oc3ccccc3)cc2)c1 [Compound 1955] | 10.6 nM
19 | CC(C)c1cccc(C(C)(C)NC(=O)N[C@H]2CC[C@H](Oc3ccc(C(=O)O)cc3)CC2)c1 [Compound 1956] | 3.9 nM
20 | CC(C)c1cccc(C(C)(C)NC(=O)NC2CCN(S(C)(=O)=O)CC2)c1 [Compound 2048] | 97.6 nM
21 | CC(=O)N1CCC(NC(=O)NC(C)(C)c2cccc(C(C)C)c2)CC1 [Compound 2064] | 444 nM
